According to patent publication US9107411B2, “Indolecarboxamides and benzimidazolecarboxamides as insecticides and acaricides” (BAYER INTELLECTUAL PROPERTY GMBH, priority 2011, dated 2015):
Read-outs that look alike come from different tables or passages of the source.

Tests used:
Boophilus microplus = Boophilus microplus test (BOOPMI injection); format: in vivo; conditions: application rate 20 μg/animal; injected into the abdomen; after 7 days
Method: Boophilus microplus Test (BOOPMI Injection) Solvent: dimethyl sulphoxide To prepare an appropriate active ingredient formulation, 10 mg of active ingredient are mixed with 0.5 ml of solvent and the concentrate is diluted with solvent to the desired concentration. The active ingredient solution is injected into the abdomen (Boophilus microplus), and the animals are transferred into dishes and stored in a climate-controlled room. After 7 days, the efficacy in % is determined. The activity is assessed by laying of fertile eggs. 100% means that none of the ticks has laid any fertile eggs.

Ctenocephalides felis = Ctenocephalides felis oral (CTECFE); format: in vivo; conditions: application rate 100 ppm in citrated cattle blood; after 2 days
Method: Ctenocephalides felis Oral ([…]) Solvent: 1 part by weight of dimethyl sulphoxide For the purpose of preparing an appropriate active ingredient formulation, 10 mg of active ingredient are mixed with 0.5 ml of dimethyl sulphoxide. A portion of the concentrate is diluted with citrated cattle blood, and the desired concentration is prepared. About 20 unfed adult fleas (Ctenocephalides felis) are placed into a chamber which is closed at the top and bottom with gauze. A metal cylinder whose bottom end is closed with Parafilm is placed onto the chamber. The cylinder contains the blood/active ingredient formulation, which can be imbibed by the fleas through the Parafilm membrane. After 2 days, the kill in % is determined 100% means that all of the fleas have been killed; 0% means that none of the fleas have been killed.

Lucilia cuprina larvae = test: Lucilia cuprina test (LUCICU); format: in vivo; conditions: application rate 100 ppm; treated horse meat; after 2 days
Method: (§1) Lucilia cuprina Test (LUCICU) Solvent: dimethyl sulphoxide To prepare an appropriate active ingredient formulation, 10 mg of active ingredient are mixed with 0.5 ml of dimethyl sulphoxide and the concentrate is diluted with water to the desired concentration. Vessels containing horse meat treated with the active ingredient formulation of the desired concentration are populated with about 20 Lucilia cuprina larvae. After 2 days, the kill in % is determined. 100% means that all of the larvae have been killed; 0% means that none of the larvae have been killed.

Phaedon cochleariae = test: Phaedon test (PHAECO spray treatment); format: in vivo; conditions: application rate 100 g/ha, Chinese cabbage leaf discs, after 7 days; for pest or weed control at 100 g/ha: Phaedon cochleariae, foliar, 168 h, read-out: efficacy in %
Procedure, shortened: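 Larval mortality was assessed 7 days after Phaedon cochleariae larvae were placed on dried, spray-treated Brassica pekinensis leaf discs. The formulation was an acetone/dimethylformamide concentrate with alkylaryl polyglycol ether emulsifier, diluted in emulsifier-containing water. Results are given as % kill, from 0 (no larvae dead) to 100 (all dead).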

Spodoptera frugiperda = Spodoptera frugiperda test (SPODFR spray treatment); format: in vivo; conditions: application rate 100 g/ha; maize leaf discs; after 7 days
Method: Spodoptera frugiperda Test (SPODFR Spray Treatment) Solvent: 78.0 parts by weight of acetone • • 1.5 parts by weight of dimethylformamide To produce an appropriate active ingredient formulation, 1 part by weight of active ingredient is mixed with the stated amounts of solvent and emulsifier, and the concentrate is diluted with emulsifier-containing water to the desired concentration. Leaf discs of maize (Zea mays) are sprayed with an active ingredient formulation of the desired concentration and, after drying, populated with caterpillars of the armyworm (Spodoptera frugiperda). After 7 days, the efficacy in % is determined 100% means that all of the caterpillars have been killed; 0% means that none of the caterpillars have been killed.

Tetranychus urticae = test: Tetranychus test, OP-resistant (TETRUR spray treatment); format: in vivo; conditions: bean leaf discs, after 6 days
Method: Tetranychus Test, OP-Resistant (TETRUR Spray Treatment)
Solvent: 78.0 parts by weight of acetone • • 1.5 parts by weight of dimethylformamide
Emulgator: 0.5 part by weight of alkylaryl polyglycol ether
To produce an appropriate active ingredient formulation, 1 part by weight of active ingredient is mixed with the stated amounts of solvent and emulsifier, and the concentrate is diluted with emulsifier-containing water to the desired concentration.
Discs of bean leaves (Phaseolus vulgaris) infested by all stages of the red spider mite (Tetranychus urticae) are sprayed with an active ingredient formulation of the desired concentration.
After 6 days, the efficacy in % is determined. 100% means that all of the spider mites have been killed; 0% means that none of the spider mites have been killed.

logP (HPLC-MS) = format: physicochemical
adult Musca domestica = test: Musca domestica test (MUSCDO); format: in vivo; conditions: application rate 100 ppm; treated sponge; after 2 days
Method: as §1, with “Musca domestica” for “Lucilia cuprina”, “(MUSCDO)” for “(LUCICU)”, “a sponge” for “horse meat”, “adult Musca domestica.” for “about 20 Lucilia cuprina larvae.”, “determined” for “determined.”, “flies” for “larvae”

[1] = HPLC, reversed-phase column (C18), acidic range pH 2.7, acetonitrile (0.1% formic acid)/water gradient, 43° C., calibration with unbranched alkan-2-ones
[2] = HPLC, reversed-phase column (C18), 43° C., acidic range pH 2.7, EEC directive 79/831 Annex V.A8, two values = both regioisomers (G = N)

| log p (logP (HPLC-MS); [1]) | log p (logP (HPLC-MS); [2]) | chromatographic logP (logP (HPLC-MS); HPLC, reversed-phase column (C18), 43° C., acidic range pH 2.7, EEC directive 79/831 Annex V.A8, two values = both regioisomers (G = N), read-out: log p) | chromatographic logP (logP (HPLC-MS); HPLC-MS) | chromatographic logP (logP (HPLC-MS); HPLC, reversed-phase column (C18), acidic range pH 2.7, acetonitrile (0.1% formic acid)/water gradient, 43° C., calibration with unbranched alkan-2-ones, read-out: log p) | SMILES | efficacy (laying of fertile eggs) (Boophilus microplus) [%] | efficacy (kill in %) (Ctenocephalides felis) [%] | efficacy (kill in %) (Lucilia cuprina larvae) [%] | efficacy in % (Phaedon cochleariae) [%] | efficacy in % (Spodoptera frugiperda) [%] | efficacy in % (Tetranychus urticae; application rate 100 g/ha) [%] | efficacy in % (Tetranychus urticae; application rate 500 g/ha) [%] | pest or weed control at 100 g/ha (Phaedon cochleariae) [%] | efficacy (kill in %) (adult Musca domestica) [%] |
| --- | --- | --- | --- | --- | --- | --- | --- | --- | --- | --- | --- | --- | --- | --- |
| 3.67 | – | – | – | – | CCn1c(C(=O)NC(c2cccc(Cl)c2)C(F)(F)F)cc2cc(C(=O)NC3(C#N)CC3)c(Cl)cc21 (stereo not shown) [Compound 39] | 100 | 100 | 100 | 100 | 100 | 100 | – | – | – |
| 3.75 | – | – | – | – | CCn1c(C(=O)NC(c2cccc(Br)c2)C(F)(F)F)cc2cc(C(=O)NC3(C#N)CC3)c(Cl)cc21 (stereo not shown) [Compound 41] | 100 | 100 | 100 | – | 100 | 100 | – | – | – |
| 3.88 | – | – | – | – | CCn1c(C(=O)NC(c2cccc(C(F)(F)F)c2)C(F)(F)F)cc2cc(C(=O)NC(C)CF)c(Cl)cc21 (stereo not shown) [Compound 8] | 100 | 95 | 100 | 100 | 100 | – | – | – | – |
| 3.86 | – | – | – | – | C#CC1(NC(=O)c2cc3cc(C(=O)NC(c4cccc(C(F)(F)F)c4)C(F)(F)F)n(CC)c3cc2Cl)CC1 (stereo not shown) [Compound 32] | 100 | 100 | 100 | 100 | – | 100 | – | – | – |
| 3.39 | – | – | – | – | Cn1c(C(=O)NC(c2cccc(Br)c2)C(F)(F)F)cc2cc(C(=O)NC3(C#N)CC3)c(Cl)cc21 (stereo not shown) [Compound 48] | 100 | 100 | 100 | 100 | 100 | 100 | – | – | – |
| 3.86 | – | – | – | – | CCn1c(C(=O)NC(c2cccc(C(F)(F)F)c2)C(F)(F)F)cc2cc(C(=O)NC(CF)CF)c(Cl)cc21 (stereo not shown) [Compound 11] | 100 | 80 | 100 | 100 | – | – | – | – | – |
| 3.86 | – | – | – | – | CCn1c(C(=O)NC(c2cccc(C(F)(F)F)c2)C(F)(F)F)cc2cc(C(=O)NC3(C(=O)OC)CC3)c(Cl)cc21 (stereo not shown) [Compound 28] | 100 | 95 | 100 | 100 | 83 | – | 100 | – | – |
| 4.09 | – | – | – | – | CCn1c(C(=O)NC(c2cccc(C(F)(F)F)c2)C(F)(F)F)cc2cc(C(=O)NC3(C#N)CCC3)c(Cl)cc21 (stereo not shown) [Compound 36] | 100 | 100 | 95 | 100 | 100 | 100 | – | – | – |
| 4.24 | – | – | – | – | C#CCn1c(C(=O)NC(c2cc(Cl)c(Cl)c(Cl)c2)C(F)(F)F)cc2cc(C(=O)NC3(C#N)CC3)c(Cl)cc21 (stereo not shown) [Compound 277] | – | – | – | 100 | 100 | 90 | – | – | – |
| – | 3.70 | – | – | – | CCOCn1c(C(=O)NC(c2cccc(C(F)(F)F)c2)C(F)(F)F)cc2cc(C(=O)NC3(C#N)CC3)c(Cl)cc21 (stereo not shown) [Compound 287] | – | – | – | 100 | 100 | 100 | – | – | – |
| – | 3.85 | – | – | – | CCn1c(C(=O)NC(c2cc(F)cc(Cl)c2)C(F)(F)F)cc2cc(C(=O)NC3(C#N)CC3)c(C)cc21 (stereo not shown) [Compound 293] | – | – | – | 100 | 100 | 100 | – | – | – |
| – | – | 3.45 | 3.45 | – | CCn1c(C(=O)NC(c2cccc(C(F)(F)F)c2)C(F)(F)F)c(C#N)c2cc(C(=O)NC3(C#N)CC3)c(Cl)cc21 (stereo not shown) [Compound 279, 6-chloro-3-cyano-N5-(1-cyanocyclopropyl)-1-ethyl-N2-{2,2,2-trifluoro-1-[3-(trifluoromethyl)phenyl]ethyl}-1H-indole-2,5-dicarboxamide] | – | – | – | – | 100 | 100 | – | 100 | – |
| 3.32 | – | – | – | – | C#CCn1c(C(=O)NC(c2cccc(OC(F)F)c2)C(F)(F)F)cc2cc(C(=O)NC3CC3)c(Cl)cc21 (stereo not shown) [Compound 278] | – | – | – | 100 | 100 | 90 | – | – | – |
| – | – | – | 5.16 | 4.03 | CCn1c(C(=O)NC(c2ccc(F)c(C(F)(F)F)c2)C(F)(F)F)cc2cc(C(=O)NCC(F)F)c(Cl)cc21 (stereo not shown) [Compound 19, 6-chloro-N^5-(2,2-difluoroethyl)-1-ethyl-N^2-{2,2,2-trifluoro-1-[4-fluoro-3-(trifluoromethyl)phenyl]ethyl}-1H-indole-2,5-dicarboxamide] | 100 | 100 | 100 | – | – | – | – | 100 | 100 |
| – | 3.80 | – | – | – | CCn1c(C(=O)NC(c2ccc3c(c2)OC(F)(F)O3)C(F)(F)F)cc2cc(C(=O)NC3(C#N)CC3)c(C)cc21 (stereo not shown) [Compound 308] | – | – | – | 100 | 100 | 90 | – | – | – |
| 3.65 | – | – | – | – | CCn1c(C(=O)NC(c2cccc(Cl)c2)C(F)(F)F)cc2cc(C(=O)NC3CC3)c(Cl)cc21 (stereo not shown) [Compound 2] | 100 | 95 | 100 | 100 | 100 | – | 100 | – | – |
| – | 4.16 | – | – | – | CCn1c(C(=O)NC(c2ccc(F)c(C(F)(F)F)c2)C(F)(F)F)cc2cc(C(=O)NC(C)C)c(C)cc21 (stereo not shown) [Compound 305] | – | – | – | 100 | 100 | 100 | – | – | – |
| 4.03 | – | – | – | – | N#CC1(NC(=O)c2cc3cc(C(=O)NC(c4cccc(C(F)(F)F)c4)C(F)(F)F)n(CC4CC4)c3cc2Cl)CC1 (stereo not shown) [Compound 272] | – | – | – | 100 | 100 | 100 | – | – | – |
| 3.77 | – | – | – | – | CCn1c(C(=O)NC(c2ccc(F)c(C(F)(F)F)c2)C(F)(F)F)cc2cc(C(=O)NC3(C#N)CC3)c(C)cc21 (stereo not shown) [Compound 189] | – | – | – | 100 | 100 | 100 | – | – | – |
| – | 4.07 | – | – | – | N#CC1(NC(=O)c2cc3cc(C(=O)NC(c4cccc(C(F)(F)F)c4)C(F)(F)F)n(Cc4ccccc4)c3cc2Cl)CC1 (stereo not shown) [Compound 284] | – | – | – | 100 | 100 | 100 | – | – | – |
